Source: ChEMBL document CHEMBL1129641 (J Med Chem, 1996)

Experiments:
[1] = biological target: T1, Beta-2 adrenergic receptor (Homo sapiens, UniProt P07550); test: Binding affinity for human Beta-2 adrenergic receptor expressed in CHO cells by radioligand competition binding assays using [125I]iodocyanopindolol (ICYP); assay type: cell-based
Target sequence in this assay (P07550 whole entry): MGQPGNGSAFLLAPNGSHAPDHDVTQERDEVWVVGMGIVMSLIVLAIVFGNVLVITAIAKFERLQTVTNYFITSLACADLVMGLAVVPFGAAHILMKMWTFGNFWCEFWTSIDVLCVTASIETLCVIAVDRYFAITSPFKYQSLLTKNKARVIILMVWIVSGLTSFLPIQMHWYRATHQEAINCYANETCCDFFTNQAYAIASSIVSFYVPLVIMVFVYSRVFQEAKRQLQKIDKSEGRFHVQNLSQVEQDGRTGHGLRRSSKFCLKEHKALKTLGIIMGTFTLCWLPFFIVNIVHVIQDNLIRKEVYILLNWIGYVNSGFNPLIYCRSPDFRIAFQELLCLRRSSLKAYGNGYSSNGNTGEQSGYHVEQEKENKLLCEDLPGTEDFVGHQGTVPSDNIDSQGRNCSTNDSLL

[2] = biological target: T2, Thromboxane A2 receptor (Homo sapiens) (UniProt P21731); test: Binding affinity for human Platelet Thromboxane A2 / Prostaglandin (TP), by radioligand competition binding assays using [3H]-SQ 29548 as radioligand. PR = potency ratio relative to TMQ
T2 sequence (whole entry): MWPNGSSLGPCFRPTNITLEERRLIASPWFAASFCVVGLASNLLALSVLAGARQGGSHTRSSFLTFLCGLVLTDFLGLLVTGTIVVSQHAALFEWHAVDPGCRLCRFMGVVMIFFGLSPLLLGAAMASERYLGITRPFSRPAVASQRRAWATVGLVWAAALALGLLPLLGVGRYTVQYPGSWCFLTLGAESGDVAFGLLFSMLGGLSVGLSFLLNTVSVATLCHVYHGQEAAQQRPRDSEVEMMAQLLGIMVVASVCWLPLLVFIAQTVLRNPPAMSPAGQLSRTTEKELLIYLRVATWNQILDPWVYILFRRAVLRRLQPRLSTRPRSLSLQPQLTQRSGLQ

Thromboxane A2 receptor = biological target: T3, Thromboxane A2 receptor (Homo sapiens, UniProt P21731); test: Binding affinity for human Platelet Thromboxane A2 / Prostaglandin (TP), by radioligand competition binding assays using [3H]-SQ 29548 as radioligand
T3 sequence (P21731 whole entry): T2 sequence (whole entry)

[3] = biological target: T1, Beta-2 adrenergic receptor; conditions: CHO
Target sequence in this assay (P07550 whole entry, looked up): as the sequence (P07550 whole entry) above
Description: Binding affinity for human beta-2 Adrenoceptor (AR) expressed in CHO cells by radioligand competition binding assays using [125I]-iodocyanopindolol (ICYP); PR = potency ratio relative to TMQ

Row | Compound | Ki [1] [nM] | PR [2] | Ki (Thromboxane A2 receptor) [nM] | PR [3]
1 | Oc1cc2c(cc1O)C(Cc1cc(C(F)(F)F)cc(C(F)(F)F)c1)NCC2 (stereo not drawn) |  | 0.002 |  | 0.01
2 | COc1c(I)cc(CC2NCCc3cc(O)c(O)cc32)cc1I (stereo not drawn) |  | 3.5 |  | 21
3 | O=C(Nc1ccc(CC2NCCc3cc(O)c(O)cc32)cc1I)c1ccccc1 (stereo not drawn) |  | 0.03 |  | 22
4 | COc1cc(C[C@@H]2NCCc3cc(O)c(O)cc32)cc(OC)c1OC |  | 1 |  | 1

The next lines start with the values.

Row | Ki [1] [nM] | PR [2] | Ki (Thromboxane A2 receptor) [nM] | PR [3] | Compound
5 | 6.46 | 0.16 | 1000 | 6.8 | Nc1ccc(CC2NCCc3cc(O)c(O)cc32)cc1I (stereo not drawn)
6 |  | 0.11 |  | 5.6 | CC(=O)Nc1ccc(CC2NCCc3cc(O)c(O)cc32)cc1I (stereo not drawn)
7 |  | 0.003 |  | 29 | Oc1cc2c(cc1O)C(Cc1cc(I)c(I)c(I)c1)NCC2 (stereo not drawn)
8 |  | 0.87 |  | 28 | Nc1c(I)cc(CC2NCCc3cc(O)c(O)cc32)cc1I (stereo not drawn)
